Key:
Experiment in all cases: relative IC50 (inflection point of fitted viability curve, relative to fitted max inhibition); higher = less sensitive
Conditions in all cases: 72 h
NK-YS (IL-2 2.5 ng/mL) = tested on: NK-YS (IL-2 2.5 ng/mL)
Protocol: (§1)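 Drug sensitivity and resistance testing: 5 concentrations over a 10,000-fold range, 72 h at 37 °C, viability by CellTiter-Glo normalised to DMSO and benzethonium chloride controls. IC50 is the inflection point of a logistic fit (min fixed at 0, max fitted), so it is relative to the fitted maximal inhibition. Kept only where fitted max inhibition is at least 50%.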

[1] = tested on: normal primary NK cells, pool 2 (3 donors) (IL-2 2.5 ng/mL)
Protocol: as §1

[2] = tested on: normal primary NK cells, pool 3 (3 donors) (IL-2 2.5 ng/mL)
Protocol: as §1

NKL (IL-2 2.5 ng/mL) = tested on: NKL (IL-2 2.5 ng/mL)
Protocol: as §1

IMC-1 (IL-2 20 ng/mL) = tested on: IMC-1 (IL-2 20 ng/mL)
Protocol: as §1

DERL-7 (IL-2 2.5 ng/mL) = tested on: DERL-7 (IL-2 2.5 ng/mL)
Protocol: as §1

SNK-6 (IL-2 2.5 ng/mL) = tested on: SNK-6 (IL-2 2.5 ng/mL)
Protocol: as §1

KHYG-1 (IL-2 2.5 ng/mL) = tested on: KHYG-1 (IL-2 2.5 ng/mL)
Protocol: as §1

YT (IL-2 2.5 ng/mL) = tested on: YT (IL-2 2.5 ng/mL)
Protocol: as §1

NK-92 (IL-2 2.5 ng/mL) = tested on: NK-92 (IL-2 2.5 ng/mL)
Protocol: as §1

KAI3 (IL-2 2.5 ng/mL) = tested on: KAI3 (IL-2 2.5 ng/mL)
Protocol: as §1

[3] = tested on: normal primary NK cells, pool 1 (3 donors), resting (IL-2 0 ng/mL)
Protocol: as §1

[4] = tested on: normal primary NK cells, pool 1 (3 donors) (IL-2 2.5 ng/mL)
Protocol: as §1

Structure (SMILES) | relative IC50 (NK-YS (IL-2 2.5 ng/mL)) | relative IC50 [1] | relative IC50 [2] | relative IC50 (NKL (IL-2 2.5 ng/mL)) | relative IC50 (IMC-1 (IL-2 20 ng/mL)) | relative IC50 (DERL-7 (IL-2 2.5 ng/mL)) | relative IC50 (SNK-6 (IL-2 2.5 ng/mL)) | relative IC50 (KHYG-1 (IL-2 2.5 ng/mL)) | relative IC50 (YT (IL-2 2.5 ng/mL)) | relative IC50 (NK-92 (IL-2 2.5 ng/mL)) | relative IC50 (KAI3 (IL-2 2.5 ng/mL)) | relative IC50 [3] | relative IC50 [4]
CC[C@H](C)C(=O)O[C@H]1C[C@@H](C)C=C2C=C[C@H](C)[C@H](CC[C@@H]3C[C@@H](O)CC(=O)O3)[C@H]21 [Lovastatin] | 1.94 µM | > 10 µM | > 10 µM | 3.52 µM | – | – | – | – | – | – | – | – | –
C=CCn1c(=O)c2cnc(Nc3ccc(N4CCN(C)CC4)cc3)nc2n1-c1cccc(C(C)(C)O)n1 [MK1775] | 0.227 µM | – | – | 0.0572 µM | 0.361 µM | 0.185 µM | 0.156 µM | 0.0593 µM | 0.19 µM | 0.0938 µM | 0.0957 µM | – | –
O=C(O)CC[C@H]1CC[C@@](c2cc(F)ccc2F)(S(=O)(=O)c2ccc(Cl)cc2)CC1 [MK-0752] | – | > 1 µM | – | – | – | – | – | – | – | – | – | > 1 µM | –
CN(Cc1cnc2nc(N)nc(N)c2n1)c1ccc(C(=O)N[C@@H](CCC(=O)O)C(=O)O)cc1 [Methotrexate] | 0.0191 µM | > 5 µM | > 5 µM | 0.0384 µM | 0.0261 µM | 0.268 µM | 0.00991 µM | 0.0178 µM | 0.0137 µM | 0.0211 µM | 0.018 µM | – | –
N#CCNC(=O)c1ccc(-c2ccnc(Nc3ccc(N4CCOCC4)cc3)n2)cc1 [Momelotinib] | 0.796 µM | 0.81 µM | 1 µM | 0.178 µM | 1.8 µM | 0.394 µM | 0.891 µM | 0.173 µM | 1.14 µM | 0.346 µM | 0.205 µM | – | 0.177 µM
CNC(=O)c1ccc2cc([C@@]3(O)CCn4cncc43)ccc2c1 [Orteronel] | > 10 µM | > 10 µM | > 10 µM | – | – | – | – | – | – | – | > 10 µM | – | –
O=C(Nc1cc(Cl)cc2c1[nH]c1cnccc12)c1cccnc1 [PS-1145] | – | – | – | – | – | – | – | – | – | – | 1.65 µM | – | –
Cc1ccc(Nc2nccc(N(C)c3ccc4c(C)n(C)nc4c3)n2)cc1S(N)(=O)=O [Pazopanib] | – | – | > 10 µM | – | – | – | 0.0313 µM | – | – | – | – | – | –
NS(=O)(=O)OC[C@@H]1C[C@@H](n2ccc3c(N[C@H]4CCc5ccccc54)ncnc32)C[C@@H]1O [Pevonedistat] | 0.507 µM | 0.449 µM | 0.335 µM | 0.448 µM | 0.107 µM | 0.43 µM | 0.0397 µM | 0.069 µM | 0.0551 µM | 0.633 µM | 0.0487 µM | – | 0.156 µM
CS(=O)(=O)N1CCN(Cc2cc3nc(-c4cccc5[nH]ncc45)nc(N4CCOCC4)c3s2)CC1 [Pictilisib] | 1.18 µM | 1.95 µM | – | 0.821 µM | > 10 µM | 0.472 µM | – | 2.01 µM | 1.26 µM | 0.421 µM | 1.49 µM | 0.694 µM | 1.12 µM
O=C(NC[C@H](O)CO)c1ccncc1Nc1ccc(I)cc1F [Pimasertib] | – | – | – | 0.049 µM | – | – | > 10 µM | 0.083 µM | – | – | – | – | –
C[C@]12C=CC(=O)C=C1CC[C@@H]1[C@@H]2[C@@H](O)C[C@@]2(C)[C@H]1CC[C@]2(O)C(=O)CO [Prednisolone] | – | 0.165 µM | – | 0.0247 µM | > 10 µM | 0.0657 µM | – | – | – | > 10 µM | > 10 µM | 0.0699 µM | 0.185 µM
Cn1c(Nc2ccc(C(F)(F)F)cc2)nc2cc(Oc3ccnc(-c4ncc(C(F)(F)F)[nH]4)c3)ccc21 [RAF265] | – | – | – | – | – | – | – | – | – | 0.175 µM | – | 0.0474 µM | –
COc1cc(OC)c(/C=C/S(=O)(=O)Cc2ccc(OC)c(NCC(=O)O)c2)c(OC)c1 [Rigosertib] | 0.0404 µM | – | – | 0.043 µM | 0.0375 µM | 0.0367 µM | 0.0535 µM | 0.0358 µM | 0.0469 µM | 0.0536 µM | 0.0485 µM | 0.84 µM | –
CCC(C)(C)C(=O)O[C@H]1C[C@@H](C)C=C2C=C[C@H](C)[C@H](CC[C@@H]3C[C@@H](O)CC(=O)O3)[C@H]21 [Simvastatin] | 2.38 µM | – | – | 2.45 µM | – | – | – | – | – | – | – | – | –
C=CCN(/C=C1/C(=O)O[C@H](COC)[C@@]2(C)C1=C(O)C(=O)C1=C2[C@H](OC(C)=O)C[C@]2(C)C(=O)CC[C@@H]12)CC=C [Sonolisib] | – | – | – | – | – | – | – | – | – | – | – | 1.63 µM | 1.2 µM
CN1CCN(c2nc(C3=C(c4c[nH]c5ccccc45)C(=O)NC3=O)c3ccccc3n2)CC1 [Sotrastaurin] | – | – | – | 0.499 µM | – | 1.08 µM | – | 1.8 µM | – | 1.69 µM | 1.62 µM | – | –
CC(C)n1cnc2c(NCCc3ccc(O)cc3)nc(-c3csc4ccccc34)nc21 [StemRegenin 1] | – | 3.42 µM | – | 1.62 µM | – | 0.112 µM | 3.86 µM | 2.45 µM | 2.53 µM | 1.18 µM | 3.18 µM | 1.9 µM | –
CCN(CC)CCNC(=O)c1c(C)[nH]c(/C=C2\C(=O)Nc3ccc(F)cc32)c1C [Sunitinib] | – | – | – | > 1 µM | > 1 µM | – | – | > 1 µM | – | > 1 µM | – | – | –
Cn1ncnc1[C@H]1c2n[nH]c(=O)c3cc(F)cc(c23)N[C@@H]1c1ccc(F)cc1 [Talazoparib] | 0.0222 µM | – | – | 0.0023 µM | 0.164 µM | – | 0.134 µM | 0.0938 µM | – | 0.0598 µM | 0.0281 µM | – | –
CC/C(=C(\c1ccccc1)c1ccc(OCCN(C)C)cc1)c1ccccc1 [Tamoxifen] | – | 2.59 µM | – | 1.43 µM | – | 1.68 µM | 3.7 µM | – | 2.7 µM | 2.94 µM | 2.45 µM | 1.68 µM | 2.06 µM
O=C1NC(=O)[C@@H](c2cn3c4c(cccc24)CCC3)[C@@H]1c1c[nH]c2ccccc12 [Tivantinib] | 0.119 µM | – | – | 0.37 µM | 0.31 µM | 0.347 µM | 0.0508 µM | 0.221 µM | 0.238 µM | 0.115 µM | 0.167 µM | – | –
NC(=S)N/N=C/c1ncccc1N [Triapine] | 1.45 µM | – | – | 3.56 µM | 3.72 µM | 3.58 µM | 3.55 µM | 0.642 µM | 3.75 µM | 0.748 µM | 1.32 µM | 1.51 µM | 2.49 µM
O=C(CCCCCCC(=O)Nc1ccc([C@H]2O[C@@H](CSc3nc(-c4ccccc4)c(-c4ccccc4)o3)C[C@@H](c3ccc(CO)cc3)O2)cc1)NO [Tubacin] | 2.83 µM | – | – | 1.33 µM | 2.65 µM | 1.62 µM | 1.8 µM | 3.09 µM | 2.63 µM | 1.66 µM | 2.07 µM | 3.8 µM | –
Clc1ccc(Nc2nnc(Cc3ccncc3)c3ccccc23)cc1 [Vatalanib] | – | – | > 10 µM | – | – | – | – | – | – | – | – | – | > 10 µM
CC[C@]1(O)C[C@H]2CN(CCc3c([nH]c4ccccc34)[C@@](C(=O)OC)(c3cc4c(cc3OC)N(C=O)[C@H]3[C@@](O)(C(=O)OC)[C@H](OC(C)=O)[C@]5(CC)C=CCN6CC[C@]43[C@@H]65)C2)C1 [Vincristine] | 0.00545 µM | – | – | 0.0029 µM | 0.00341 µM | 0.00338 µM | 0.00474 µM | 0.00314 µM | 0.0036 µM | 0.00988 µM | 0.0079 µM | – | –
Oc1nc(-c2ccc(C(F)(F)F)cc2)nc2c1CSCC2 [XAV-939] | – | – | – | – | – | – | 0.968 µM | – | – | – | – | > 10 µM | –

— the supplement of paper PMC5908809
